According to patent US8993721B2, “Peptides for targeting apoptotic cells and uses thereof” (Kyungpook National University Industry-Academic Cooperation …, priority 2008, dated 2015):
“Also recorded” adds a separate entry of the source. Where no end group is shown, it is not given here.

Legend:
[1] = test system: etoposide-treated apoptotic cells (A549, H460, HeLa, L132, RAW); assay: Microscopic observation of binding of the peptide to apoptotic cells (Example 3-1); type: cell-based
Procedure: Cells were cultured in chamber slide (Nalgene Nunc) and treated with 50 μM etoposide (Sigma) for a given period of time (A549 and HeLa cells: for 15 hours, H460 cells: 24 hours, L132 cells: 3 hours, RAW cells: 6 hours) to induce apoptosis. The cells were cultured in RMPI-1640 medium (A549 and H460 cells) or DMEM (HeLa, L132 and RAW cells) containing antibiotics (penicillin and streptomycin) and 10% FBS. All the cells were subcultured every 3 or 4 days. The apoptosis-induced apoptotic cells were washed with PBS and blocked with 1% BSA at 37° C. for 30 minutes. Then, the cells were reacted with 10 μM of the peptide labeled with fluorescein, at 4° C. for 1 hour. After washing, the cells were reacted with an annexin V reaction buffer containing Alexa594-labeled annexin V (Molecular Probes), at room temperature for 15 minutes. The cells were washed with PBS and then fixed with 4% paraformaldehyde for 5 minutes. Thereafter, after counterstaining using the nuclear stain 4′,6-diamidino-2-phenylindole (DAPI), followed by treatment with a mounting solution (Molecular Probes), images of the cells were obtained under a fluorescence microscope (Zeiss).

[2] = test system: necrosis-induced A549 cells (glucose-depleted medium); assay: Microscopic observation of binding of the peptide to necrotic cells (Example 9-4); type: cell-based, human; settings: glucose-depleted medium 24 hours; 10 μM fluorescein-labeled peptide 4° C. 1 hour
Procedure: A549 Cells were cultured in chamber slide (Nunc) and treated with glucose-depleted medium for 24 hours to induce necrosis. The necrosis-induced cells were washed with PBS and blocked with 1% BSA at 37° C. for 30 minutes. Then, the cells were reacted with 10 μM of the peptide labeled with fluorescein, at 4° C. for 1 hour. After washing, the cells were reacted with […] Hoechst […] dye and […] PI at 37° C. for 15 minutes. The cells were washed with PBS and then fixed with 4% paraformaldehyde for 5 minutes.

[3] = test system: A549 tumor xenotransplanted in nude mice; assay: In vivo fluorescence imaging of targeting of apoptotic cells in tumor (Example 10); set-up: species or system mouse
Procedure: Nude mice in which tumor was xenotransplanted using A549 cells were prepared as in Example <8-1>. The mice were grouped into a doxorubicin (Sigma) treated group (Dox+) and untreated group (Dox−). The treated group was treated with doxorubicin (5 mg/kg) one time, 12 hours prior to injection of the peptide. At the tail vein of each mouse, the polypeptide of the present invention or a control peptide, labeled with fluorescein or Cy7.5 near-infrared fluorescent dye, was injected at a final concentration of 50 μM, under isoflurane anesthesia. Following the injection, in vivo fluorescence images were obtained 0.5 hours and every hour, from 1 hour to 4 hours, after the injection, using an Optix exPlore instrument (ART). The images were standardized using the software provided with the instrument.

Substance | labeling of normal cells not treated with etoposide ([1]; 10 μM fluorescein-labeled peptide 4° C. 1 hour, Alexa594-annexin V) | labeling of etoposide-treated apoptotic cells (fluorescence microscopy) ([1]; 50 μM etoposide, 10 μM fluorescein-labeled peptide 4° C. 1 hour, Alexa594-annexin V room temperature 15 minutes) | location of peptide binding relative to annexin V binding (merge) ([1]; etoposide-treated apoptotic cells) | labeling of glucose-depleted necrotic cells [2] | ex vivo fluorescence signal from the kidney ([3]; 4 hours after peptide injection, all the groups, renal clearance) | ex vivo fluorescence signal from the isolated tumor, doxorubicin treated group ([3]; 4 hours after peptide injection, compared to Dox− ApoPep-2 and Dox+ control peptide) | time at which the fluorescence signal from the tumor tissue was most strongly detected ([3]; Cy7.5-labeled, doxorubicin treated group (5 mg/kg, 12 hours before)) | fluorescence signal from the tumor, doxorubicin treated group ([3]; Dox+, Cy7.5-labeled peptide 50 μM) | fluorescence signal from the tumor, doxorubicin untreated group ([3]; Dox−, Cy7.5-labeled peptide 50 μM) | time from which fluorescence from the tumor was detected ([3]; fluorescein-labeled, large tumor (1 cm or larger in diameter), no agent)
CQRPPR (also: fluorescein or Cy7.5 label) [ApoPep-1, peptide CQRPPR screened for macrophages; used fluorescein- or Cy7.5-labeled] | no labeling was observed | labeling was observed | at the same locations | – | – | – | – | – | – | –
CSVAPR (also: fluorescein or Cy7.5 label) [ApoPep-2, peptide CSVAPR screened for endothelial cells; used fluorescein- or Cy7.5-labeled] | – | – | – | did not bind to the necrosis-induced cells; also recorded: no labeling was observed | strong | strong | 2 h | targeted the tumor tissue | targeting was not observed; also recorded: weakly detected | 2 h
